Each structure is given as a SMILES string. pEC50: −log10 of the molar value.

The values that follow come from US9399648B2, “Isothiazolopyridinones useful for the treatment of (inter alia) cystic fibrosis” (Vertex Pharmaceuticals Incorporated, priority 2007, dated 2016).

The target of the assay is T1, ΔF508-CFTR (Homo sapiens, UniProt P13569, DEL508-508).
T1 construct: expressed in transfected cells; host or cells: Fisher rat […] (FRT) cells expressing ΔF508-CFTR (Ussing chamber); NIH3T3 cells stably expressing ΔF508-CFTR (whole-cell recording)
T1 sequence (P13569 with tags, fused parts or gaps DEL508-508): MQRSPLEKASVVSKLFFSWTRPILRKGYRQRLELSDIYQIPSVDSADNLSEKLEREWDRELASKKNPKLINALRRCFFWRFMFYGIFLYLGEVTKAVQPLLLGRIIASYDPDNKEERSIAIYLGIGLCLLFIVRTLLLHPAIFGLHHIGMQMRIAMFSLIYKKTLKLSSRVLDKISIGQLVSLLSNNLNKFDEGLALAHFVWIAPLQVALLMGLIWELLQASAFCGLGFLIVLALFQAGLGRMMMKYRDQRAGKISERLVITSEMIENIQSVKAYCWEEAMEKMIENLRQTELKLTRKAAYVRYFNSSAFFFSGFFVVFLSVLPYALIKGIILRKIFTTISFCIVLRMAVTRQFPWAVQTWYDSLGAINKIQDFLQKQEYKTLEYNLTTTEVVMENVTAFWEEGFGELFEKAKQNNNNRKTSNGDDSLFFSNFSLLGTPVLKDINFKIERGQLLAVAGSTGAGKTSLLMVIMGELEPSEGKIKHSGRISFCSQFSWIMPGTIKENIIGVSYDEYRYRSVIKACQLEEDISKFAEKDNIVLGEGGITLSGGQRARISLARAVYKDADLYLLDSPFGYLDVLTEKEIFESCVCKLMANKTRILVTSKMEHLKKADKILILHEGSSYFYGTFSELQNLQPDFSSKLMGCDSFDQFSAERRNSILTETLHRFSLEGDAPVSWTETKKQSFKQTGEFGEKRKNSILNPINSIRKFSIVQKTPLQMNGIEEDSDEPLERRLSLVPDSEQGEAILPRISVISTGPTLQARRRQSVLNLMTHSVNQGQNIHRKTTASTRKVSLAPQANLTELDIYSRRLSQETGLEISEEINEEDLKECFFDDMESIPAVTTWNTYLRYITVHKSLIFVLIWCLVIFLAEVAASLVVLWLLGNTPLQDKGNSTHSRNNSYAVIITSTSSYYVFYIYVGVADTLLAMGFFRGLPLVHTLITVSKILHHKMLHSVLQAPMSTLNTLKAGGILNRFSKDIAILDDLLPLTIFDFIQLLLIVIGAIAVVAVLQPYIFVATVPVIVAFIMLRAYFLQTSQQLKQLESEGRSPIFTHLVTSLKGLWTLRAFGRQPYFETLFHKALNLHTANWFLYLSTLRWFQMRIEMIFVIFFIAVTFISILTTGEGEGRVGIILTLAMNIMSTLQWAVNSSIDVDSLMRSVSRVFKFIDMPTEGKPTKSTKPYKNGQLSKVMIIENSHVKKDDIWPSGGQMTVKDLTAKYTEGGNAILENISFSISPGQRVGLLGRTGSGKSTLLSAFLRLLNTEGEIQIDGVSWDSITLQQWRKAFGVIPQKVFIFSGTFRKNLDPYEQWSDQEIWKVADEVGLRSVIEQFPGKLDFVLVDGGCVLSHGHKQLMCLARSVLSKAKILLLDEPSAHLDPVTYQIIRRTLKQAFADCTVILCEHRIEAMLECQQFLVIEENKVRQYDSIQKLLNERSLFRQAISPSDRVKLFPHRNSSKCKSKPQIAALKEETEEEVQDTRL
Nature of the assay: Assays for detecting and measuring ΔF508-CFTR potentiation properties of compounds (membrane potential optical / Ussing chamber / whole-cell recording). It is filed as cell-based. The note with it: for Emax: relative efficacy, efficacy of putative ΔF508-CFTR potentiators compared to known potentiator genistein; for pEC50: ΔF508-CFTR potentiation, the specific assay format behind Table 3 is not stated. An excerpt:
Assays for Detecting and Measuring ΔF508-CFTR Potentiation Properties of Compounds
Membrane Potential Optical Methods for Assaying ΔF508-CFTR Modulation Properties of Compounds
The optical membrane potential assay utilized voltage-sensitive FRET sensors described by Gonzalez and Tsien (See Gonzalez, J. E. and R. Y. Tsien (1995) “Voltage sensing by fluorescence resonance energy transfer in single cells” Biophys J 69(4): 1272-80, and Gonzalez, J. E. and R. Y. Tsien (1997) “Improved indicators of cell membrane potential that use fluorescence resonance energy transfer” Chem Biol 4(4): 269-77) in combination with instrumentation for measuring fluorescence changes such as the Voltage/Ion Probe Reader (VIPR) (See Gonzalez, J. E., K. Oades, et al. (1999) “Cell-based assays and instrumentation for screening ion-channel targets” Drug Discov Today 4(9): 431-439).
These voltage sensitive assays are based on the change in fluorescence resonant energy transfer (FRET) between the membrane-soluble, voltage-sensitive dye, DiSBAC2(3), and a fluorescent phospholipid, CC2-DMPE, which is attached to the outer leaflet of the plasma membrane and acts as a FRET donor. Changes in membrane potential (Vm) cause the negatively charged DiSBAC2(3) to redistribute across the plasma membrane and the amount of energy transfer from CC2-DMPE changes accordingly. The changes in fluorescence emission were monitored using VIPR™ II, which is an integrated liquid handler and fluorescent detector designed to conduct cell-based screens in 96- or 384-well microtiter plates.
Identification of Potentiator Compounds
Typical protocol utilized a basolateral to apical membrane Cl^− concentration gradient. To set up this gradient, normal ringers was used on the basolateral membrane and was permeabilized with nystatin (360 μg/m), whereas apical NaCl was replaced by equimolar sodium gluconate (titrated to pH 7.4 with NaOH) to give a large Cl^− concentration gradient across the epithelium. All experiments were performed 30 min after nystatin permeabilization. Forskolin (10 μM) and all test compounds were added to both sides of the cell culture inserts. The efficacy of the putative ΔF508-CFTR potentiators was compared to that of the known potentiator, genistein.
Solutions • Basolateral solution (in mM): NaCl (135), CaCl2 (1.2), MgCl2 (1.2), K2HPO4 (2.4), KHPO4 (0.6), N-2-hydroxyethylpiperazine-N′-2-ethanesulfonic acid (HEPES) (10), and dextrose (10). The solution was titrated to pH 7.4 with NaOH. • Apical solution (in mM): Same as basolateral solution with NaCl replaced with Na Gluconate (135).
Fisher rat […] (FRT) cells expressing ΔF508-CFTR (FRTΔ^F508-CFTR) were used for Ussing chamber experiments for the putative ΔF508-CFTR modulators identified from our optical assays. The cells were cultured on Costar Snapwell cell culture inserts and cultured for five days at 37° C. and 5% CO2 in Coon's modified Ham's F-12 medium supplemented with 5% fetal calf serum, 100 U/ml penicillin, and 100 μg/m streptomycin. Prior to use for characterizing the potentiator activity of compounds, the cells were incubated at 27° C. for 16-48 hrs to correct for the ΔF508-CFTR. To determine the activity of corrections compounds, the cells were incubated at 27° C. or 37° C. with and without the compounds for 24 hours.
The macroscopic ΔF508-CFTR current (IΔF508) in temperature- and test compound-corrected NIH3T3 cells stably expressing ΔF508-CFTR were monitored using the perforated-patch, whole-cell recording. Briefly, voltage-clamp recordings of IΔF508 were performed at room temperature using an Axopatch 200B patch-clamp amplifier (Axon Instruments Inc., Foster City, Calif.). All recordings were acquired at a sampling frequency of 10 kHz and low-pass filtered at 1 kHz. […] Under these recording conditions, the calculated reversal potential for Cl^− (ECl) at room temperature was −28 mV. […]

As to `Cc1nsc2[nH]cc(C(=O)Nc3ccc(N4[C@H](C)CC[C@H]4C)cc3C(F)(F)F)c(=O)c12` [Compound 11], the Emax lay in the range of 25 to 100% and the pEC50 was greater than 5.00.
For `Cc1nsc2[nH]cc(C(=O)Nc3ccc(N4CC[C@@H](F)C4)cc3C(F)(F)F)c(=O)c12` [Compound 13], in that order: 25 to 100% and greater than 5.00.
For `Cc1nsc2[nH]cc(C(=O)Nc3cc(O)c(C4(C)CCCCC4)cc3F)c(=O)c12` [Compound 5], in that order: 25 to 100% and greater than 5.00.
For `Cc1nsc2[nH]cc(C(=O)Nc3cc(O)c(C4CCCC4)cc3C(F)(F)F)c(=O)c12` [Compound 12], in that order: 25 to 100% and greater than 5.00.
In the case of `Cc1nsc2[nH]cc(C(=O)Nc3ccc(N4CCC(C)(C)C4)cc3C(F)(F)F)c(=O)c12` [Compound 8], the Emax was in the range of 25 to 100% and the pEC50 is greater than 5.00.
For `Cc1nsc2[nH]cc(C(=O)Nc3cc4[nH]ccc4cc3C(C)(C)C)c(=O)c12` [Compound 14], in that order: 25 to 100% and greater than 5.00.
For `Cc1nsc2[nH]cc(C(=O)Nc3ccc4c(C(C)(C)C)c[nH]c4c3)c(=O)c12` [Compound 2, N-(3-tert-butyl-1H-indol-6-yl)-3-methyl-4-oxo-4,7-dihydroisothiazolo[5,4-b]-pyridine-5-carboxamide], the Emax was in the range of 25 to 100% and the pEC50 is greater than 5.00.
For the compound `Cc1nsc2[nH]cc(C(=O)Nc3ccc4c(C(F)(F)F)c[nH]c4c3)c(=O)c12` [Compound 1], the Emax lay within 25 to 100% and the pEC50 was greater than 5.00.
For `Cc1nsc2[nH]cc(C(=O)Nc3ccc(N4CC[C@H](F)C4)cc3C(F)(F)F)c(=O)c12` [Compound 10], in that order: 25 to 100% and greater than 5.00.
Regarding `Cc1nsc2[nH]cc(C(=O)Nc3cc4[nH]ccc4cc3C(F)(F)F)c(=O)c12` [Compound 9], the Emax lay within 25 to 100% and the pEC50 was greater than 5.00.
As for `Cc1cc(C2CCCC2)c(O)cc1NC(=O)c1c[nH]c2snc(C)c2c1=O` [Compound 16], the Emax lay in the range of 25 to 100% and the pEC50 is greater than 5.00.
Consider `Cc1nsc2[nH]cc(C(=O)Nc3cc(O)c(C4CCCC4)cc3C#N)c(=O)c12` [Compound 15], for which the Emax fell in the range of 25 to 100% and the pEC50 was greater than 5.00.
For `Cc1nsc2[nH]cc(C(=O)Nc3cc(O)c(C(C)(C)C)cc3C(C)(C)C)c(=O)c12` [Compound 3], the Emax was 25 to 100% and the negative logarithm of the EC50 (pEC50) is greater than 5.00.
Consider `Cc1nsc2[nH]cc(C(=O)Nc3ccc(C(F)(F)F)c(O)c3)c(=O)c12` [Compound 6], for which the Emax lay in the range of 25 to 100% and the pEC50 was greater than 5.00.
For `Cc1nsc2[nH]cc(C(=O)Nc3ccc(N4CCC[C@@H]4C)cc3C(F)(F)F)c(=O)c12` [Compound 4], in that order: 25 to 100% and greater than 5.00.
For `Cc1nsc2[nH]cc(C(=O)Nc3ccc(N4CCC(F)(F)C4)cc3C(F)(F)F)c(=O)c12` [Compound 7], in that order: 25 to 100% and greater than 5.00.

By Emax is commonly meant the size of the effect at its maximum, as opposed to the concentration needed. As usually defined, the pEC50 is −log10 of the EC50, conventionally taken in molar units.
